Reference: patent US8110580B2, “Thiophene pyrazolopyrimidine compounds” (Eli Lilly and Company, priority 2006, dated 2012)
Positions count from the first letter of the chain named.

What was measured:
[1] = biological target: T1, human CRF2 (Homo sapiens, UniProt Q13324); test: CRF2 filter binding assay; conditions: HEK-hCRF2 membranes; compound concentration 50 μM
T1 construct: expressed in transfected cells
T1 sequence (Q13324 1-411): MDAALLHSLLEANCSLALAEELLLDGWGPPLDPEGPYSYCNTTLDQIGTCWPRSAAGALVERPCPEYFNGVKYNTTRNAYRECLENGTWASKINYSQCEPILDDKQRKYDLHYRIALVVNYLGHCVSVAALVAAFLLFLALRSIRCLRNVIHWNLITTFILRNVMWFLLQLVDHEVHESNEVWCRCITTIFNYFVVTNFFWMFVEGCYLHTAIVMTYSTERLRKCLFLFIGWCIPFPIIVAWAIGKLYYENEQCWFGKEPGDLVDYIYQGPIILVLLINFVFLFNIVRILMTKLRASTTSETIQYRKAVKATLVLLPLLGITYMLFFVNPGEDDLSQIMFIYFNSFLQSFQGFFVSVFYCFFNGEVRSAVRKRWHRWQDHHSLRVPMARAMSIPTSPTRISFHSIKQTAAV
Protocol: The limitations of plasmid-based human CRF2 expression, in terms of generating a recombinant cell line with sufficient receptor density to develop a binding assay, are overcome by using a Phoenix retroviral expression system licensed from Stanford. The stable HEK-hCRF2 cell line is used to prepare membranes and binding reactions (200 μl) are set up as follows: 50 ul of ^125I-sauvagine (0.2 nM final concentration), 50 μl compound and 100 μl CRF2 membrane (25 μg/reaction). The reactions are incubated at room temperature for 2 hours and then terminated by filtration through pre-treated FB Millipore glass fiber filter plates (96 well). The plates are washed twice with ice-cold assay buffer (50 mM tris, 12.5 mM NaCl, 1 mM EDTA, 10 mM MgCl2, 0.05% BSA, pH 7.2), air dried over night and counted with 100 μl Microscint 40 in a MicroBeta counter. Non-specific binding (NSB) is determined in the presence of 0.5 μM non-labeled sauvagine. Alternatively, compounds are evaluated using a Scintillation Proximity assay. […] Bound radioactivity is assessed using a Wallac Trilux scintillation counter. Binding is assessed typically using triplicate determinations and the median data points plotted by Graph Pad Prism. […]

[2] = biological target: T2, human CRF1 (Homo sapiens, UniProt P34998); test: CRF1 filter binding assay; conditions: HEK-hCRF1 membranes; 125I-Sauvagine (4 nM) in roller/adherent cells; read-out: Ki (inhibition constant), inhibition of binding of 125I-Sauvagine
T2 construct: expressed in transfected cells
T2 sequence (P34998 24-415): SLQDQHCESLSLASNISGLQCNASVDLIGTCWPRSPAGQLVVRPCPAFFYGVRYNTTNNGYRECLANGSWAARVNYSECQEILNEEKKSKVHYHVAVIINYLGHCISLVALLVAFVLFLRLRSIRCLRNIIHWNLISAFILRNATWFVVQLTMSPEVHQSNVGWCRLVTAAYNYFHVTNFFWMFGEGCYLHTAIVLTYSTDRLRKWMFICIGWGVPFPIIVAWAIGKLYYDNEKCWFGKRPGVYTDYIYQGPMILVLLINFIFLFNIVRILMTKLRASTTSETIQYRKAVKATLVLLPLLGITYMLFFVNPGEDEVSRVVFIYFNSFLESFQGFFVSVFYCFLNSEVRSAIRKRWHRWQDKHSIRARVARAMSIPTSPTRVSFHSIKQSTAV
Protocol: The limitations of plasmid-based human CRF1 expression, in terms of generating a recombinant cell line with sufficient receptor density to develop a binding assay, are overcome by using a Phoenix retroviral expression system licensed from Stanford. The stable HEK-hCRF1 cell line is used to prepare membranes and binding reactions (200 μl) are set up as follows: 50 μl of ^125I-sauvagine (0.2 nM final), 50 μl compound and 100 μl CRF1 membrane (25 μg/reaction). The reactions are incubated at room temperature for 2 hours and then terminated by filtration through pre-treated FB Millipore glass fiber filter plates (96 well). The plates are wash twice with ice-cold assay buffer (50 mM tris, 12.5 mM NaCl, 1 mM EDTA, 10 mM MgCl2, 0.05% BSA, pH 7.2), air dried over night and counted with 100 μl Microscint 40 in a MicroBeta counter. Non-specific binding (NSB) is determined in the presence of 0.5 μM non-labeled sauvagine. Triplicate determinations are typically run and the median data points plotted by Graph Pad Prism.
Using this assay, the exemplified compounds of the present invention (except for Examples 2, 3, 6, 7, and 8, which were used as intermediates for other Examples and were not tested.) inhibit the binding of ^125I-Sauvagine (4 nM) in roller/adherent cells with a Ki (inhibition constant)≦500 nM.

[3] = biological target: T3, binding of 125I-sauvagine to the cerebellum (Rattus norvegicus, UniProt P35353); test: In vivo potency assessment using ex vivo binding; conditions: oral route
T3 construct: from tissue; host or cells: rat cerebellum
T3 sequence (P35353 24-415): T2 sequence (P34998 24-415) with H6R, S9N, A13T, I16V, M153V, G163A, I209V, Y229H, H356R
Protocol: To assess in vivo potency, a compound of the present invention is evaluated using ex vivo binding. Using the procedures as provided in D. R. Gehlert et al., EJP 509: 145-153 (2005), a compound is administered to a rat via the oral route.

inhibition at 50 µM [1]: 39%
Ki [2]: 4.4 nM
inhibition at 10 mg/kg [3]: 74%
SMILES: CCCC(CCC)c1cc(C)nc2c(-c3sc(-c4ncnn4C)cc3Cl)c(C)nn12 [Example 20, 3-[3-Chloro-5-(2-methyl-2H-[1,2,4]triazole-3-yl)-thiophene-2-yl]-7-(1-propyl-butyl)-2,5-dimethyl-pyrazolo[1,5-a]pyrimidine]
